Source: patent US11866424B2, “Aggregation-induced emission luminogens for photodynamic therapy” (The Hong Kong University of Science and Technology, priority 2020, dated 2024)

Legend:
HeLa cell = experiment: MTT cytotoxicity / PDT assay, HeLa cell line; format: cell-based; details: 5 μM, white light 20 min (20 mW/cm^2)
Experimental: 3-(4,5-Dimethylthiazol-2-yl)-2,5-diphenyltetrazolium bromide (MTT) assay was utilized to quantitatively measure the cytotoxicity of TFPy, TFVP, TPE-TFPy, and three in one group based on both Hela cell line and 4T1 cell line. The three in one group was consist of one third concentration of TFPy, TFVP, and TPE-TFPY. Both cancer cell lines were seeded in DMEM media in a 96-well round-bottom microplate with a density of 1×10^4 cells per well. The AIEgens (TFPy, TFVP, TPE-TFPy, and three in one) were added at different concentrations of 0, 0.25, 0.5, 1, 2.5, and 5 μM after replacing the medium, and was incubated with different cell lines respectively for 20 min, followed by irradiation with white light for 20 min (20 mW/cm^2); and another array of plates with cells were kept in the dark as control. After 24 h incubation, 10 uL MTT (5 mg/mL in PBS) was added into each well. 4 hours later, DMSO was added into wells to dissolve the precipitated formazan. Finally, the absorption of each well at 595 nm was recorded via a plate reader (Perkin-Elmer Victor3™). Each trial was performed with 6 wells in parallel.
Cytotoxicity of photosensitizer is a non-negligible factor to take into consideration. […] Consequently, quantitative evaluation of PDT effect was applied on both HeLa Cell and 4T1 cell line through standard methylthiazolyldiphenyltetrazolium bromide (MTT) assay. Each AIEgen and an experimental group named “three in one” were evaluated. The “three in one” group was comprised of one third concentration of each AIEgen (⅓ TFPy, ⅓ TFVP, and ⅓ TPE-TFPy) to assure the overall concentration as same as other experimental groups. […] However, upon irradiation with light for 20 min, HeLa cell suffered severe viability loss with only 10% remained when the “three in one” group was at a concentration of 2.5 μM (FIG. 5C).

[1] = ROS generation measurement with ABDA indicator under white light; details: 1 μM sample, 10 μM ABDA, DMSO/water 1/100, white light 4.2 mW·cm^−2, up to 6 min; compared with Ce6 and Rose Bengal
Experimental: 9,10-Anthracenediyl-bis(methylene)dimalonic acid (ABDA) was employed to detect ROS generation of TFPy, TFVP, TPE-TFPy, and two commercial standard photosensitizer, Rose Bengal, and Ce6 upon light irradiation. The absorbance of each sample (1 μM) was firstly set as blank. Then, 10 μM of ABDA was mixed to each sample (DMSO/water (v:v)=1/100) in a dark room, and the absorbance of sample was measured at once. The sample mixture was then irradiated under white light (4.2 mW/cm^−2) at intervals of 1 min until 6 min. The absorption of ABDA at 378 nm was recorded at various irradiation times to obtain the decay rate of photosensitizing process. The absorbance change of ABDA alone in 6 min light irradiation time was also measured as control.
Preliminary study was conducted by evaluating capability of ROS generation of three AIEgens. 9,10-Anthracenediyl-bis-(methylene)-dimalonic acid (ABDA) whose absorption will decrease once oxidized by ROS was utilized as an indicator. […] Ce6 and Rose Bangel, two well-known commercially available standard photosensitizers, were engaged as comparison.

HeLa cells = experiment: HeLa cell imaging / co-localization with commercial organelle probes (CLSM); format: cell-based; details: for subcellular organelle visualized after incubation: CLSM, excitation 488 nm; for Pearson's coefficient (co-localization efficiency): co-staining with MitoTracker Green (TFPy), CellMask Green (TFVP), LysoTracker Green (TPE-TFPy)
Experimental: Hela cells were seeded and cultured at 37° C. in a 35 mm glass-bottomed dish. After incubation with TFPy (1 μM), TFVP (5 μM), or TPE-TFPy (2 μM), the cells were washed with PBS three times and subjected to imaging analysis using a Zeiss Laser Scanning Confocal Microscope. All of three AIEgens can be excited with 488 nm filter and the emission filter was 570-740 nm. For co-staining assay, the TFPy, TFVP, and TPE-TFPy loaded Hela cells were subjected to incubation with MitoTracker Green, CellMask Green, and LysoTracker Green, respectively. Hoechst 33258 (5 μM) was also utilized to stain nuclear DNA to assist visualizing. Afterwards, the cells were washed with PBS and then observed with CLSM. The cells were imaged using appropriate excitation and emission filters for each dye. The co-localization efficiency was analyzed with Olympus FV10-ASW software, in which the calculated Pearson's coefficient was 0.90 for TFPy, 0.91 for TFVP, and 0.90 for TPE-TFPy. A stock solution of three AIEgens comprising of 1 μM TFPy, 10 μM TFVP, and 1 μM TPE-TFPy was utilized to incubate with Hela cells, followed by imaging analysis excited with 488 nm filter.
In vitro cellular imaging was carried out to evaluate their subcellular organelle targeting property by confocal laser scanning microscopy (CLSM) using HeLa cell as model cell line. Thanks to the analogous maximum absorption of three AIEgens, fluorescence images can be acquired simultaneously using the same excitation at 488 nm. […] Besides, when HeLa cells were cultured with these three AIEgens simultaneously, all of mitochondria, cell membrane and lysosome were highly emissive (FIG. 3D). It was inferred that the mitochondria-staining behavior of TFPy could be attributed to its high efficiency of electrophoretic transmembrane migration, as well as appropriate binding ability between positively charged pyridinium moiety and the negatively charged interior of the transmembrane potential of mitochondria. The low permeability coefficients resulted from the quite high free energy barrier of TFVP at membrane center could lead to its specific accumulation. In the case of TPE-TFPy, it tends to form nano-sized aggregates in culture media due to the high hydrophobicity, and the in-situ generated aggregates can internalize into lysosome of HeLa cells through endocytosis and specifically light up lysosome upon photoexcitation.

[2] = UV-Vis and photoluminescence spectroscopy (optical properties, AIE characteristics); format: physicochemical; details: for λabs: Absorption maximum in DMSO (TFPy and TPE-TFPy) and H2O (TFVP) solution, 10 μM; for λem (Soln.): Emission maximum in DMSO (TFPy and TPE-TFPy) and H2O (TFVP) solution at 10 μM; for ΦF (Aggr.) / ΦF (Soln.) / ΦF (Solid.): Fluorescence quantum yield; for ΦF (Aggr.): aggregation state in 5% DMSO + 95% Toluene or 5% H2O + 95% THF (TFVP); for ΦF (Soln.): calibrated integrating sphere, DMSO (TFPy, TPE-TFPy) or H2O (TFVP) solution; for ΦF (Solid.) / stokes shifts / λem (Solid.): solid state; for λem (Aggr.): aggregation state in 5% DMSO + 95% Toluene (TFPy and TPE-TFPy) or 5% H2O + 95% THF (TFVP); for Iaggr,max/Isoln: emission intensity in 5% DMSO + 95% Toluene (TFPy, TPE-TFPy) or 5% H2O + 95% THF (TFVP) relative to solution; for ε: solution
From the text: All the chemicals were purchased from Meryer, J&K, or Sigma as received without further purification. Superdry (99.9%) DCM and methanol with molecular sieves were purchased from J&K Scientific. Toluene was distilled from sodium and benzophenone under nitrogen prior to use. Phosphate buffered saline (PBS) was purchased from Thermo Fisher Scientific. ABDA, Ce6 and Rose Bengal were purchased from Sigma-Aldrich and used as received. Cell culture medium and fetal bovine serum (FBS) were purchased from GIBCO (Gran Island, NY, USA). Mitotracker Green, CellMask Green, and LysoTracker Green were purchased from ThermoFisherScientific. 1H NMR (400 MHz), 13C NMR (100 MHz) spectra were recorded on a Bruker ARX 400 Spectrometer with CDCl3 or d6-DMSO as deuterated solvent. High resolution mass spectra (HRMS) were performed on a Finnigan MAT TAQ 7000 mass spectrometer system operating in matrix-assisted laser desorption/ionization time of flight mass spectrometry (MALDI-TOF) mode. UV-Vis absorption and fluorescence spectra were recorded with Milton Roy Spectronic 3000 array spectrophotometer. Fluorescence images of AIEgens in solution and aggregation state were collected on an Olympus BX 41 fluorescence microscope. Cellular fluorescence images were taken using a Zeiss laser scanning confocal microscope (LSM7 DUO) and analyzed using ZEN 2009 software (Carl Zeiss). Theoretical study was carried out on 6-311G* basis set in Gaussian09 using density functional theory (DFT) approximated by ωB97X-D.
The photophysical properties of TFPy, TFVP and TPE-TFPy were characterized by UV-Vis and photoluminescence spectroscopies at the concentration of 10 μM as shown in FIG. 2 and summarized in Table 1. […] Due to different solubility behavior, the AIE characteristics of TFPy and TPE-TFPy were investigated in DMSO/toluene mixture with different toluene fractions, whereas TFVP was measured in H2O/THF mixture (FIGS. 2C and 2D, FIG. 8). Taking TFVP as an example, TFVP was barely emissive when fully dissolved in water. Upon increasing THF fraction, fluorescence emission intensity got boosted accordingly with a 218-time increment when THF fraction reached 95%. […] In addition, upon the increase of THF or toluene as poor solvent, the emission wavelengths of three AIEgens were blue-shifted owing to the decrease of solvent polarity, manifesting TICT attributes, which is again ascribed to their D-A feature.

4T1 cells = experiment: 4T1 cell imaging / co-localization with commercial organelle probes; format: cell-based; details: for organelle towards which strong affinity is exhibited: 4T1 cell line; for Pearson's coefficient (co-localization): 4T1 cells, co-staining with commercial probes
Experimental: Similar co-staining procedure for Hela cell was applied on 4T1 cell. The calculated Pearson's coefficient was 0.90 for TFPy, 0.91 for TFVP, and 0.90 for TPE-TFPy.
Motivated by the excellent targetability and specificity of three diverse organelle-targeting AIEgens, photostability was also carefully investigated as it is an essential parameter to evaluate a fluorescence imaging agent. Photostability assessment was carried out by continuous irradiation and sequential scanning with confocal microscope. […] With HeLa cell imaging and photostability data in hand, additional cellular uptake experiment using 4T1 cell line was performed as preliminary study for in vivo experiment.

SMILES	cell viability upon light irradiation (HeLa cell) [%]	ROS generation efficacy (decrease of ABDA absorption at 378 nm) [1]	subcellular organelle visualized after incubation (HeLa cells)	Pearson's coefficient (co-localization efficiency) (HeLa cells)	λabs [2] [nm]	λem (Soln.) [2] [nm]	ΦF (Aggr.) [2] [%]	ΦF (Soln.) [2] [%]	ΦF (Solid.) [2] [%]	λem (Aggr.) [2] [nm]	Iaggr,max/Isoln [2]	stokes shifts [2]	λem (Solid.) [2] [nm]	ε [2] [M⁻¹ cm⁻¹]	organelle towards which strong affinity is exhibited (4T1 cells)	Pearson's coefficient (co-localization) (4T1 cells)
C[n+]1ccc(C=Cc2ccc(-c3ccc(N(c4ccccc4)c4ccccc4)cc3)o2)cc1.F[P-](F)(F)(F)(F)F [TFPy]	58	better than Ce6, but not as efficient as Rose B angel	mitochondria	0.90	485	686	10	0.4	0.5	660	12.6	ca. 200 nm	672	27000	mitochondria	0.90
C[N+](C)(C)CCC[n+]1ccc(C=Cc2ccc(-c3ccc(N(c4ccccc4)c4ccccc4)cc3)o2)cc1.[Br-].[Br-] [TFVP]	53	better than Ce6, but not as efficient as Rose B angel	cell membrane	0.91	492	675	5	0.4	0.6	672	218	ca. 200 nm	690	28000	cellular membrane	0.91
C[n+]1ccc(C=Cc2ccc(-c3ccc(N(c4ccccc4)c4ccc(C(=C(c5ccccc5)c5ccccc5)c5ccccc5)cc4)cc3)o2)cc1.F[P-](F)(F)(F)(F)F [TPE-TFPy]	15	much higher than Rose Bangel	lyso some	0.90	490	672	4.2	0.5	1.1	664	26.4	ca. 200 nm	683	31000	lysosome	0.90
